Data published in EP2140864A2 (H. Lundbeck A/S, priority 2001, dated 2002).
Where two headings read alike, the source gives them in different places.

Legend:
human GAL1 receptor = biological target: T1, human GAL1 receptor (Homo sapiens, UniProt P47211); experiment: Radioligand binding at cloned human GAL1 receptor
T1 construct: expressed in transfected cells
T1 sequence (P47211 1-349): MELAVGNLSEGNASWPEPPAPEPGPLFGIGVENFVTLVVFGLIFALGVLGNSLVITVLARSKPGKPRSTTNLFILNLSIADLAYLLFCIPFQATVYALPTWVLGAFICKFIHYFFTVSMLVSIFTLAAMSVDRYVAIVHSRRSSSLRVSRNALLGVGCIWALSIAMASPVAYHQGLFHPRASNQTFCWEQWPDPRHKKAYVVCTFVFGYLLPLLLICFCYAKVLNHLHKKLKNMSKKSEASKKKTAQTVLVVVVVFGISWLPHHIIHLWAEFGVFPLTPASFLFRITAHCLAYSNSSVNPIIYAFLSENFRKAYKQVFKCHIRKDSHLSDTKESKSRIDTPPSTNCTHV
Experimental: The binding properties of the pyrimidines of the present invention were evaluated at the cloned human galanin receptors, GAL1, GAL2, and GAL3, using protocols described herein. […]
(§1) LM(tk-) cells were stably transfected with the human GAL1 or GAL3 receptor. CHO cells were stably transfected with the human GAL2 receptor.
(§2) cDNAs for the human and rat GAL1, and human and rat GAL3 receptors were transfected with a G-418 resistant gene into the mouse fibroblast LM(tk-) cell line by a calcium phosphate transfection method (Cullen, 1987). Stably transfected cells were selected with G-418. Human and rat GAL2 receptors were similarly transfected into CHO cells.
(§3) Membranes were harvested from stably transfected LM(tk-) cells. Adherent cells were washed twice in ice-cold phosphate buffered saline (138 mM NaCl, 8.1 mM Na2HPO4, 2.5 mM KCl, 1.2 mM KH2PO4, 0.9 mM CaCl2, 0.5 mM MgCl2, pH 7.4) and lysed by sonication in ice-cold sonication buffer (20 mM Tris-HCl, 5 mM EDTA, pH 7.7). Large particles and debris were cleared by low speed centrifugation (200 x g, 5 min, 4°C). Membranes were collected from the supernatant fraction by centrifugation (32,000 x g, 18 min, 4°C), washed with ice-cold hypotonic buffer, and collected again by centrifugation (32,000 x g, 18 min, 4°C). The final membrane pellet was resuspended by sonication into a small volume of ice-cold binding buffer (-1 ml for every 5 plates: 10 mM NaCl, 20 mM HEPES, 0.22 mM KH2PO4, 1.26 mM CaCl2, 0.81 mM MgSO4, pH 7.4). Protein concentration was measured by the Bradford method (Bradford, 1976) using Bio-Rad Reagent, with bovine serum albumin as a standard. Membranes were held on ice for up to one hour and used fresh, or flash frozen and stored in liquid nitrogen. Membranes were prepared similarly from CHO cells.
(§4) Galanin Recentors: Binding assays were performed according to the following published methods: human GAL3 (PCT International Publication No. WO 98/15570), human GAL1 (PCT International Publication No. WO 95/2260), human GAL2 (PCT International Publication No. WO 97/26853).
(§5) Binding data were analyzed using nonlinear regression and statistical techniques available in the GraphPAD Prism package (San Diego, CA). Enzymatic assay data were derived from a standard curve of reference compound data.

human GAL2 receptor = biological target: T2, human GAL2 receptor (Homo sapiens, UniProt O43603); experiment: Radioligand binding at cloned human GAL2 receptor
T2 construct: expressed in transfected cells
T2 sequence (O43603 1-387): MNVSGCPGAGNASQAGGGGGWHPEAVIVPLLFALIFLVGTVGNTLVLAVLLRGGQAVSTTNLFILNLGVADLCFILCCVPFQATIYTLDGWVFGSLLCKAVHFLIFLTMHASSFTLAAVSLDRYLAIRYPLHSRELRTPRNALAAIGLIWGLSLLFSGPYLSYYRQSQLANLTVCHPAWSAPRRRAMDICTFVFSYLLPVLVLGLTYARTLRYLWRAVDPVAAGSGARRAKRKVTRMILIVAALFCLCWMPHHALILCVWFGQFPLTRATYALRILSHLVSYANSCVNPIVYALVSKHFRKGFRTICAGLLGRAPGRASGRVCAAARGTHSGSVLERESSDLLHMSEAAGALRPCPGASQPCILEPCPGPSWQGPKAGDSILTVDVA
Experimental: The binding properties of the pyrimidines of the present invention were evaluated at the cloned human galanin receptors, GAL1, GAL2, and GAL3, using protocols described herein.
The binding properties of the indolones of the present invention were evaluated at the cloned human galanin receptors, GAL1, GAL2, and GAL3, using protocols described herein.
as §1, §2, §3, §4, §5

human GAL3 receptor = biological target: T3, human GAL3 receptor (Homo sapiens, UniProt O60755); experiment: Radioligand binding at cloned human GAL3 receptor
T3 construct: expressed in transfected cells
T3 sequence (O60755 1-368): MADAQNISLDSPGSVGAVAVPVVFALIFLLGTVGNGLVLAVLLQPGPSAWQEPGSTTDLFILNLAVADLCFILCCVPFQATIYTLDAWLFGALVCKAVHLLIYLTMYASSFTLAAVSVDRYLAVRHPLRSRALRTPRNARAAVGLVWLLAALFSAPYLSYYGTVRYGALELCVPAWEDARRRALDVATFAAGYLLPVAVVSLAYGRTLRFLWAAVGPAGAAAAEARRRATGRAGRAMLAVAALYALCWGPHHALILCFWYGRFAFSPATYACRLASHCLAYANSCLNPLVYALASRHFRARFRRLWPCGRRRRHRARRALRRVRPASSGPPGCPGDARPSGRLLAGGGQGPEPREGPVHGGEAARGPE
Outline: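 Membranes from LM(tk-) cells stably expressing human GAL3, prepared in binding buffer (HEPES-based, pH 7.4), used for radioligand binding. Solvent at final assay concentration: 3% DMSO for indolones, 1% ethanol/0.09% pluronic F-127 for pyrimidines. Binding data analysed by nonlinear regression.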

[1] = pyrimidines, read-out: Ki GalR1
[2] = pyrimidines, read-out: Ki GalR2
[3] = pyrimidines, cloned human receptor; read-out: Ki GalR3
[4] = indolones, cloned human receptor; read-out: Ki GalR3

Cc1ccc(Nc2cc(N3CCCCC3)nc(N3CCO[C@@H](c4ccccc4)[C@H]3C)n2)cc1 [Example 48]
Ki (human GAL1 receptor; [1]): > 5000 nM
Ki (human GAL2 receptor; [2]): 4230 nM
Ki (human GAL3 receptor; [3]): 120 nM

CC1CCC(Nc2cc(N(C)C)nc(Nc3ccccc3)n2)CC1 (stereo not drawn) [Example 67]
Ki (human GAL1 receptor; [1]): > 5000 nM
Ki (human GAL2 receptor; [2]): > 5000 nM
Ki (human GAL3 receptor; [3]): 752 nM

Cc1cccc(N=C2C(=O)N(c3ccccc3)c3ccccc32)c1 [Example 93]
Ki (human GAL1 receptor; indolones, read-out: Ki GalR1): > 10000 nM
Ki (human GAL2 receptor; indolones, read-out: Ki GalR2): > 10000 nM
Ki (human GAL3 receptor; [4]): 171 nM

Cc1ccc(Nc2cc(N(C)C)nc(N3CCOC(c4ccccc4)C3)n2)cc1 (stereo not drawn) [Example 83]
Ki (human GAL1 receptor; [1]): > 5000 nM
Ki (human GAL2 receptor; [2]): > 5000 nM
Ki (human GAL3 receptor; [3]): 160 nM

C=CCN1C(=O)C(=Nc2ccc(Cl)c(Cl)c2)c2ccccc21 [Example 105, 1-ALLYL-3-[(3,4-DICHLOROPHENYL)IMINO]-1,3-DIHYDRO-2H-INDOL-2-ONE]
Ki (human GAL1 receptor; indolones, read-out: Ki GalR1): > 10000 nM
Ki (human GAL2 receptor; indolones, read-out: Ki GalR2): > 10000 nM
Ki (human GAL3 receptor; [4]): 97 nM

COCC1CCCCN1c1cc(Nc2ccc(C)cc2)nc(N2CCN(c3ncccc3C(F)(F)F)CC2)n1 (stereo not drawn) [Example 90]
Ki (human GAL1 receptor; [1]): > 5000 nM
Ki (human GAL2 receptor; [2]): 2460 nM
Ki (human GAL3 receptor; [3]): 105 nM

Cc1ccc(Nc2cc(N3CCCCC3)nc(N(C)c3ccc(C)cc3)n2)cc1 [Example 7]
Ki (human GAL1 receptor; [1]): 1110 nM
Ki (human GAL2 receptor; [2]): 775 nM
Ki (human GAL3 receptor; [3]): 177 nM

Cc1ccc(Nc2cc(N3CCCCC3)nc(N3CCOCC3c3ccccc3)n2)cc1 (stereo not drawn) [Example 46]
Ki (human GAL1 receptor; [1]): > 5000 nM
Ki (human GAL2 receptor; [2]): > 5000 nM
Ki (human GAL3 receptor; [3]): 577 nM

CC(C)N1C(=O)C(=Nc2ccc(Br)cc2)c2ccccc21 [Example 107, 3-[(4-BROMOPHENYL)IMINO]-1-ISOPROPYL-1,3-DIHYDRO-2H-INDOL-2-ONE]
Ki (human GAL1 receptor; indolones, read-out: Ki GalR1): > 10000 nM
Ki (human GAL2 receptor; indolones, read-out: Ki GalR2): > 10000 nM
Ki (human GAL3 receptor; [4]): 126 nM

CN(C)c1cc(Nc2ccc(Cl)cc2)nc(Nc2ccccc2)n1 [Example 58]
Ki (human GAL1 receptor; [1]): > 5000 nM
Ki (human GAL2 receptor; [2]): > 5000 nM
Ki (human GAL3 receptor; [3]): 783 nM

COc1ccccc1N=C1C(=O)N(c2ccccc2)c2ccccc21 [Example 91, 3-[(2-METHOXYPHENYL)IMINO]-1-PHENYL-1,3-DIHYDRO-2H-INDOL-2-ONE]
Ki (human GAL1 receptor; indolones, read-out: Ki GalR1): > 10000 nM
Ki (human GAL2 receptor; indolones, read-out: Ki GalR2): > 10000 nM
Ki (human GAL3 receptor; [4]): 527 nM

Cc1ccc(Nc2cc(N(C)C)nc(NCCc3c[nH]c4ccccc34)n2)cc1 [Example 76]
Ki (human GAL1 receptor; [1]): 3800 nM
Ki (human GAL2 receptor; [2]): 1660 nM
Ki (human GAL3 receptor; [3]): 392 nM

CN(C)c1cc(Nc2ccc(Cl)c(Cl)c2)nc(N(C)CCc2c[nH]c3ccccc23)n1 [Example 78]
Ki (human GAL1 receptor; [1]): 4940 nM
Ki (human GAL2 receptor; [2]): 1860 nM
Ki (human GAL3 receptor; [3]): 41 nM

COCCN(c1nc(Nc2ccc(C)cc2)cc(N(C)C)n1)C1CCCCC1 [Example 74]
Ki (human GAL1 receptor; [1]): 2290 nM
Ki (human GAL2 receptor; [2]): 468 nM
Ki (human GAL3 receptor; [3]): 47 nM

Cc1ccc(Nc2cc(N3CCCCC3)nc(N(C)C(C)Cc3c[nH]c4ccccc34)n2)cc1 (stereo not drawn) [Example 21]
Ki (human GAL1 receptor; [1]): 4790 nM
Ki (human GAL2 receptor; [2]): 1100 nM
Ki (human GAL3 receptor; [3]): 49 nM

O=C1C(=Nc2ccc(Oc3ccccc3)cc2)c2ccccc2N1c1ccccc1 [Example 100, 3-[(4-PHENOXYPHENYL)IMINO]-1-PHENYL-1,3-DIHYDRO-2H-INDOL-2-ONE]
Ki (human GAL1 receptor; indolones, read-out: Ki GalR1): > 10000 nM
Ki (human GAL2 receptor; indolones, read-out: Ki GalR2): > 10000 nM
Ki (human GAL3 receptor; [4]): 90 nM

FC(F)(F)c1cccnc1N1CCN(c2nc(NC3CC4CCC3C4)cc(N3CCCCC3)n2)CC1 (stereo not drawn) [Example 36]
Ki (human GAL1 receptor; [1]): 442 nM
Ki (human GAL2 receptor; [2]): 90 nM
Ki (human GAL3 receptor; [3]): 93 nM

Cc1ccc(Nc2cc(N3CCCCC3)nc(N3CCCC3)n2)cc1 [Example 38]
Ki (human GAL1 receptor; [1]): 2900 nM
Ki (human GAL2 receptor; [2]): 516 nM
Ki (human GAL3 receptor; [3]): 320 nM

O=C1C(=Nc2ccc(F)cc2)c2ccccc2N1c1ccccc1 [Example 99, 3-[(4-FLUOROPHENYL)IMINO]-1-PHENYL-1,3-DIHYDRO-2H-INDOL-2-ONE]
Ki (human GAL1 receptor; indolones, read-out: Ki GalR1): > 10000 nM
Ki (human GAL2 receptor; indolones, read-out: Ki GalR2): > 10000 nM
Ki (human GAL3 receptor; [4]): 229 nM

CN(C)c1cc(NC2CC3CCC2C3)nc(Nc2ccccc2)n1 (stereo not drawn) [Example 69]
Ki (human GAL1 receptor; [1]): > 5000 nM
Ki (human GAL2 receptor; [2]): > 5000 nM
Ki (human GAL3 receptor; [3]): 417 nM

Cc1ccc(Nc2cc(N3CCCCC3)nc(N3CCc4ccccc4C3)n2)cc1 [Example 41]
Ki (human GAL1 receptor; [1]): 2130 nM
Ki (human GAL2 receptor; [2]): 840 nM
Ki (human GAL3 receptor; [3]): 151 nM

Cc1ccc(Nc2cc(N(C)C)nc(Nc3ccccc3)n2)cc1Cl [Example 62]
Ki (human GAL1 receptor; [1]): > 5000 nM
Ki (human GAL2 receptor; [2]): > 5000 nM
Ki (human GAL3 receptor; [3]): 736 nM

Cc1ccc(Nc2cc(N3CCCCC3)nc(N3CCN(c4cccc(C(F)(F)F)c4)CC3)n2)cc1 [Example 29]
Ki (human GAL1 receptor; [1]): 716 nM
Ki (human GAL2 receptor; [2]): 359 nM
Ki (human GAL3 receptor; [3]): 46 nM

COCCN(c1nc(Nc2ccc(C)cc2)cc(N2CCCCC2)n1)C1CCCCC1 [Example 2]
Ki (human GAL1 receptor; [1]): 2820 nM
Ki (human GAL2 receptor; [2]): 562 nM
Ki (human GAL3 receptor; [3]): 26 nM

Cc1ccc(Nc2cc(N3CCCCC3)nc(Nc3ccc(Cl)cc3)n2)cc1 [Example 5]
Ki (human GAL1 receptor; [1]): > 5000 nM
Ki (human GAL2 receptor; [2]): > 5000 nM
Ki (human GAL3 receptor; [3]): 345 nM

COc1ccc(N2CCN(c3nc(Nc4ccc(C)cc4)cc(N4CCCCC4)n3)CC2)c(OC)c1 [Example 28]
Ki (human GAL1 receptor; read-out: Ki GalR1, pyrimidines): > 5000 nM
Ki (human GAL2 receptor; read-out: Ki GalR2, pyrimidines): > 5000 nM
Ki (human GAL3 receptor; read-out: Ki GalR3; pyrimidines, cloned human receptor): 270 nM

Cc1ccc(Nc2cc(N(C)C)nc(N3CCOCC3c3ccccc3)n2)cc1 (stereo not drawn) [Example 82]
Ki (human GAL1 receptor; [1]): > 5000 nM
Ki (human GAL2 receptor; [2]): > 5000 nM
Ki (human GAL3 receptor; [3]): 232 nM

Cc1ccc(Nc2cc(N3CCCCC3)nc(N3CCN(c4ccccc4)CC3)n2)cc1 [Example 25]
Ki (human GAL1 receptor; [1]): > 5000 nM
Ki (human GAL2 receptor; [2]): 1500 nM
Ki (human GAL3 receptor; [3]): 548 nM
